In PMC6366430 (Journal of Enzyme Inhibition and Medicinal Chemistry, 2019):
Values joined by “and” are separate entries in the source; they are usually repeats but may differ in a detail not shown here. Identical values can stand only once. Like-named read-outs stand apart in the source and are kept apart here.

Key:
AChE from electric eel = biological target: T1, AChE from electric eel (Electrophorus electricus, UniProt O42275); experiment: biochemical; conditions: for IC50: AChE from electric eel, mean ± SD of triplicate independent experiments
T1 construct: purchased Sigma-Aldrich
T1 sequence (O42275 24-633): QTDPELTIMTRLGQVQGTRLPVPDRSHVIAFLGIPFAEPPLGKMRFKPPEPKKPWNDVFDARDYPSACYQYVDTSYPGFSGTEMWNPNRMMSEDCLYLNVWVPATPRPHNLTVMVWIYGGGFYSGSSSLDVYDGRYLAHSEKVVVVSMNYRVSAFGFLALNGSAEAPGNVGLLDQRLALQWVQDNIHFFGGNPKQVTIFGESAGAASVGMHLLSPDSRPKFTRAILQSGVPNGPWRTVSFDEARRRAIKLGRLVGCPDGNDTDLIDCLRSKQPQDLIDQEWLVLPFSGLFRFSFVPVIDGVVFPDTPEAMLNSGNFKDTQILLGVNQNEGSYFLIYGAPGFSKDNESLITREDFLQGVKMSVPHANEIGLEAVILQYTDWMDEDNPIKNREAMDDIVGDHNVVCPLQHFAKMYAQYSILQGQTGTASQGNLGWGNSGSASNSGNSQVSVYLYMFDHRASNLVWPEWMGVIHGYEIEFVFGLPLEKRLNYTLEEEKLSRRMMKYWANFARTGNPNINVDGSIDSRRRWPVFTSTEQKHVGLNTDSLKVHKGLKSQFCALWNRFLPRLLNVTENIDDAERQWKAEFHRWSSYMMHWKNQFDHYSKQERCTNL
Procedure: (§1) Activity of enzymes and inhibition kinetics were determined using a Bio-Rad iMark microplate reader based on a modification of the Ellman method.[14] ^, [15] Compounds were dissolved in DMSO. The assay solution which contained 60 µL 5,5′-Dithiobis(2-nitrobenzoic acid) (DTNB) at 1.1 mM, 30 µL AChE/BuChE at 0.20 U/mL (initial concentration) and 150 µL tested compound solution with different concentrations. Absorbance was then recorded at λ = 415 nm. […]
(§2) serially diluted. Negative (without treatment) and vehicle (DMSO, final concentration 0.2% v/v for AChE and 0.8% v/v for BuChE) controls were kept for reference.
(§3) Following, there were added 60 μL of 5,5′-Dithiobis(2-nitrobenzoic acid) (DTNB, Ellman's reagent) at 1.1 mM and 30 μL of electric eel acetylcholinesterase (EeAChE) or equine serum butyrylcholinesterase (EqBuChE) at 0.20 U/mL in the presence of 1 mg/mL bovine serum albumin (BSA). Absorbance was then recorded using an iMark plate reader (Bio-Rad) equipped with a λ = 415 nm light filter and this measure used as […]
(§4) acetylthiocholine iodide (ACTI) or S-butyrylthiocholine iodide (BCTI) were added and the absorbance recorded after a 10-minute incubation at 30 °C at λ = 415 nm for 3 times within 30 seconds. Enzyme activity was calculated as percentage of untreated control discounting the blank reference. The final inhibitor concentration ranged from 100 – 0.00001 μM for AChE (dillution factor = 10) and from 400 – 0.1 μM for BuChE (dillution factor = 4). IC50 values were calculated on Graphpad Prism 7.0 using the non-linear regression model for dose-response inhibition. […]

BuChE from horse serum = biological target: T2, BuChE from horse serum (Equus caballus, UniProt P81908); experiment: biochemical; conditions: mean ± SD of triplicate independent experiments
T2 construct: equine serum butyrylcholinesterase (EqBuChE); from tissue; host or cells: equine (horse) serum
T2 sequence (P81908 whole entry): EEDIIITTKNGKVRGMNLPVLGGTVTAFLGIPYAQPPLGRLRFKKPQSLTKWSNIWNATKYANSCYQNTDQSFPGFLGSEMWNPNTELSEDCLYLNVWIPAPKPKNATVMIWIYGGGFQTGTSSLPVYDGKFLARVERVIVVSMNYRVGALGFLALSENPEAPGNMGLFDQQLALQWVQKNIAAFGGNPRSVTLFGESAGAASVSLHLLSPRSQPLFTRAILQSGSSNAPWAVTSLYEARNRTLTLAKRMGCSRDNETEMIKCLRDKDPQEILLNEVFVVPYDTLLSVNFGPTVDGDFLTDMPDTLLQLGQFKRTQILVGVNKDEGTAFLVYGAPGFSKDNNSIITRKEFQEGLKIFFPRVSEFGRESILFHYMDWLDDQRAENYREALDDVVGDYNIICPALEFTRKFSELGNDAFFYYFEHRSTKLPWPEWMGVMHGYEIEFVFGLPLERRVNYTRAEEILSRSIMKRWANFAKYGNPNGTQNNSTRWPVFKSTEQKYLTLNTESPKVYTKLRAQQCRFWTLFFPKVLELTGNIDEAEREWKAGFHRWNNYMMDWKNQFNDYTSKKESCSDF
Procedure: as §1, §2, §3, §4

[1] = Ferric reducing ability of plasma (FRAP) antioxidant assay; conditions: 50 µM final concentration, 10 min at 37 °C
Procedure: A 0.5 ml solution of coumarin compounds in methanol (50 µM final concentration) was mixed with 4.5 ml of the FRAP reagent. After 10 min of incubation at 37 °C, absorbance at 593 nm was measured using methanol as blank.[20] ^, [21] The calibration curve was prepared with quercetin and the results expressed as: antioxidant index based on quercetine (Q) (mmol Q/mol). The analyses were performed in triplicate.
FRAP solution was freshly prepared by mixing 25 mL acetate buffer (0.30 M) at pH
3.6, 2.5 mL ferric chloride (20 mM) and 2.5 mL 2,4,6-tris(2-pyridyl)-s-triazine (10
mM). In a test tube containing 4.5 mL of FRAP reagent were added 0.5 mL of 500 µM
solutions of 4a-d, 5a-c and 6a-c (in methanol). After a 10-minute incubation at 37°C the
absorbance was recorded in a spectrophotometer at λ = 593 nm using methanol as blank
reference11. A standard curve was obtained by plotting the absorbance read after
of quercetin (Q) equivalent to mol of inhibitor (mmol Q/mol), obtained in triplicates.

[2] = test system: N2a cells (neuroblastoma); experiment: N2a neuroblastoma cell viability, MTT assay; assay type: cell-based, murine; conditions: for Neuroblastoma cell viability, MTT reduction relative to control cells, Mean ± SD: 48 h; for cytotoxicity against N2a cells (in words): 48 h incubation, maximum tested concentration 50 µM
Procedure: N2a cells were cultured in Dulbecco’s modified Eagle’s medium supplemented with 10% fetal bovine serum and 0.1% gentamicin in a 5% CO2 atmosphere. N2a cells were transferred to a 96-well plate (∼10,000 cells/cm^2) and incubated for 24 h, before treatment with the compounds at 10 or 50 µM. Cell viability was evaluated by MTT (3-[4,5-dimethylthiazol-2-yl]-2,5-diphenyl tetrazolium bromide) assay.
Murine neuroblastoma cell (N2a) culture and cell viability assay.
N2a cells were cultured in Dulbecco’s modified Eagle’s medium supplemented with 10% fetal bovine serum and 0.1% gentamicin in a 5% CO2 atmosphere. N2a cells were transferred to a 96-well plate (~10,000 cells/cm2) and incubated for 24 h, before treatment with the compounds at 10 or 50 µM. After being treated, cells were grown for 48 hours. Cell viability was evaluated by MTT (3-[4,5-dimethylthiazol-2-yl]-2,5-diphenyl tetrazolium bromide) assay. MTT was added to a final concentration of 0.5 mg/mL into the wells (samples and controls), and the plates were incubated for 4 h at 37 °C. After, all the media was removed and produced formazan crystals were solubilized with DMSO and quantified by reading the OD at 570 nm in a 96-well plate reader (SpectraMax® Paradigm®, Molecular Devices). Means and standard deviations were calculated from triplicates.

[3] = biological target: T3, electric eel acetylcholinesterase (EeAChE) (Electrophorus electricus, UniProt O42275); experiment: biochemical; assay type: biochemical; conditions: for inhibition type in AChE: Lineweaver–Burk; for Ki’ (non-competitive inhibition constant) on AChE / Ki: ± SD of triplicate; for Ki: read-out: Ki (competitive inhibition constant) on AChE
T3 construct: purchased Sigma-Aldrich
T3 sequence (O42275 24-633): as the sequence (O42275 24-633) above
Procedure: as §1
(§5) The enzymatic kinetic of cholinesterase inhibition was determined according to adapted Ellman's method1. All of the solution were prepared in 0.02 M tris-HCl buffer (pH = 7.5), stock solutions of test compounds prepared in DMSO (50 mM), and the experiment conducted in triplicate. To a flat-bottom 96-well transparent plate were added 150μL of treatment solutions with inhibitors 4d and 6a at two different concentrations (Table 2) distributed in eight sets of triplicates each. Eight sets of untreated triplicates were used as negative control. Following, there were added 60 μL of 5,5′-Dithiobis(2-nitrobenzoic acid) (DTNB, Ellman's reagent) at 1.1 mM and 30 μL of electric eel acetylcholinesterase (EeAChE) or equine serum butyrylcholinesterase (EqBuChE) at 0.20 U/mL in presence of 1 mg/mL bovine serum albumin (BSA).
(§6) Absorbance was then recorded using an iMark plate reader (Bio-Rad) equipped with a λ = 415 nm light filter and this measure used as a blank reference. After 10-minute incubation at room temperature, 24 μL of acetylthiocholine iodide (ACTI) or S- […]
(§7) the absorbance recorded after incubation for 0, 5, 10, 15 and 20 minutes at room temperature at λ = 415 nm. The Lineweaver–Burk reciprocal plots were obtained by […]
(§8) plotting a 1/velocity versus 1/[substrate] graph for two different inhibitor concentrations […]
(§9) behavior, in ways the region to where the curves converge determine the type of inhibition observed. Ki, Ki' (competitive and noncompetitive inhibition constants respectively), Km (Michaelis-Menten constant) and Vmax values were calculated with Graphpad Prism 7.0 using the non-linear regression models for enzyme kinetics - inhibiton and enzyme kinects - substrate vs. velocity.

[4] = biological target: T4, equine serum butyrylcholinesterase (EqBuChE) (Equus caballus, UniProt P81908); experiment: biochemical; assay type: biochemical; conditions: for inhibition type in BuChE: Lineweaver–Burk; for Ki’ (non-competitive inhibition constant) on BuChE / Ki: ± SD of triplicate; for Ki: read-out: Ki (competitive inhibition constant) on BuChE
T4 construct: equine serum butyrylcholinesterase (EqBuChE); from tissue; host or cells: equine (horse) serum
T4 sequence (P81908 whole entry): as the sequence (P81908 whole entry) above
Procedure: as §1, §5, §6, §7, §8, §9

| Compound | IC50 (AChE from electric eel; read-out: IC50(μM)±SD AChE) | SI (selectivity index, BuChE IC50/AChE IC50) (AChE from electric eel) | IC50 (BuChE from horse serum) [µM] | FRAP value, antioxidant index based on quercetine (Q) [1] [mmol Q/mol] | Neuroblastoma cell viability, MTT reduction relative to control cells, Mean ± SD ([2]; 10 µM) [%] | Neuroblastoma cell viability, MTT reduction relative to control cells, Mean ± SD ([2]; 50 µM) [%] | cytotoxicity against N2a cells (in words) [2] | other results |
| --- | --- | --- | --- | --- | --- | --- | --- | --- |
| CN(C)c1ccc(-c2cc3ccc(OCCCN4CCCCC4)cc3oc2=O)cc1 [Compound 6b] | 0.33 ± 0.011 µM | 22 | 7.27 ± 0.273 | 2.42 ± 0.19 | 84.11 ± 11.1 | 16.79 ± 8.41 | increase in toxicity | – |
| O=c1oc2cc(OCCCCCN3CCCCC3)ccc2cc1-c1ccccc1 [Compound 5c] | 0.45 ± 0.036 µM | 2 | 0.9 ± 0.001 | – | 117.4 ± 4.86 | 13.47 ± 1.19 | increase in toxicity | – |
| O=c1oc2cc(OCCCCN3CCCCC3)ccc2cc1Br [Compound 4c] | 0.55 ± 0.01 µM | 9 | 4.92 ± 0.095 | – | 94.43 ± 4.28 | 88.88 ± 19.01 | – | – |
| O=c1oc2cc(OCCCN3CCCCC3)ccc2cc1-c1ccccc1 [Compound 5b] | 0.24 ± 0.014 µM | 8 | 1.86 ± 0.024 | – | 83.55 ± 6.58 | 57.06 ± 8.72 | increase in toxicity | – |
| CN(C)c1ccc(-c2cc3ccc(OCCN4CCCCC4)cc3oc2=O)cc1 [Compound 6a] | – | 354 | 6.73 ± 0.04 | 7.49 ± 0.61 | 92.15 ± 43.03 | 115.9 ± 4.28 | not cytotoxic | IC50 (AChE from electric eel; IC50(μM)±SD AChE): 0.02 ± 0.001 µM; Ki’ (noncompetitive) against AChE [3]: 10 nM; inhibition type in AChE [3]: mixed-type inhibition; Vmax on AChE ([3]; inhibitor 0.01 μM): 1.762 ± 0.128 µM/min; Vmax on AChE ([3]; inhibitor 0.03 μM): 1.254 ± 0.043 µM/min; Ki’ (non-competitive inhibition constant) on AChE [3]: 10.499 ± 0.438 nM; Ki [3]: 1.61 ± 0.066 nM; inhibition type in BuChE [4]: mixed-type inhibition; Vmax on BuChE ([4]; inhibitor 0.01 μM (so in the source)): 4.837 ± 0.399 µM/min; Vmax on BuChE ([4]; inhibitor 0.03 μM (so in the source)): 3.224 ± 0.284 µM/min; Ki’ (non-competitive inhibition constant) on BuChE [4]: 7376 ± 558 nM; Ki [4]: 2580 ± 236 nM |
| CN(C)c1ccc(-c2cc3ccc(OCCCCCN4CCCCC4)cc3oc2=O)cc1 [Compound 6c] | 0.92 µM and 0.96 µM | 4 | 3.85 ± 0.19 | 2.77 ± 0.00 | 59.04 ± 8.21 | 10.09 ± 3.09 | increase in toxicity | – |
| O=c1oc2cc(OCCN3CCCCC3)ccc2cc1Br [Compound 4a] | 0.18 ± 0.009 µM | 47 | 8.37 ± 0.167 | – | 89.16 ± 11.28 | 103.2 ± 13.68 | not cytotoxic | – |
| O=c1oc2cc(OCCCN3CCCCC3)ccc2cc1Br [Compound 4b] | 0.37 ± 0.008 µM | 42 | 15.87 ± 0.007 | – | 93.34 ± 8.19 | 87.60 ± 4.39 | – | – |
| O=c1oc2cc(OCCN3CCCCC3)ccc2cc1-c1ccccc1 [Compound 5a] | 0.14 ± 0.009 µM | 18 | 2.5 ± 0.177 | – | 98.37 ± 8.92 | 105.5 ± 14.93 | not cytotoxic | – |
| O=c1oc2cc(OCCCCCN3CCCCC3)ccc2cc1Br [Compound 4d] | 0.14 µM and 0.15 µM | 33 | 5.01 ± 0.253 | – | 80.10 ± 7.27 | 62.11 ± 10.09 | – | inhibition type in AChE [3]: mixed-type inhibition; Vmax on AChE ([3]; inhibitor 0.1 μM): 2.209 ± 0.060 µM/min; Vmax on AChE ([3]; inhibitor 0.2 μM): 1.752 ± 0.198 µM/min; Ki’ (non-competitive inhibition constant) on AChE [3]: 157.350 ± 4.674 nM; Ki [3]: 21.3 ± 0.816 nM; inhibition type in BuChE [4]: mixed-type inhibition; Vmax on BuChE ([4]; inhibitor 0.1 μM (so in the source)): 5.791 ± 0.185 µM/min; Vmax on BuChE ([4]; inhibitor 0.2 μM (so in the source)): 4.669 ± 0.229 µM/min; Ki’ (non-competitive inhibition constant) on BuChE [4]: 6621 ± 322 nM; Ki [4]: 2130 ± 148 nM |
